Patent US10017791B2, “Coryneform bacterium transformant and process for producing 4-hydroxybenzoic acid or salt thereof using the same” (GREEN PHENOL DEVELOPMENT CO., LTD., priority 2014, dated 2018)
pIC50: −log10 of the molar value.

Target: T1, chorismate-pyruvate lyase of Citrobacter youngae (Citrobacter youngae, UniProt A0ABM8MN84, A17E/A70K/G54A/S20A/T66M)
T1 sequence (A0ABM8MN84 1-165 A17E/S20A/G54A/T66M/A70K): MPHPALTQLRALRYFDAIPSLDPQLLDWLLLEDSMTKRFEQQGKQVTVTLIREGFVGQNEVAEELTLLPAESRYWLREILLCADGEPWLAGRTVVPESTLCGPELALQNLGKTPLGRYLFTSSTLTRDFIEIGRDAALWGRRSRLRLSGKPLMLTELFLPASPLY
Assay: Product inhibition of chorismate-pyruvate lyase activity by 4-HBA (IC50)
Assay type: biochemical
Conditions: cell lysate supernatant of strain HBA13

`O=C(O)c1ccc(O)cc1` [Strain 4-HBA, 4-hydroxybenzoic acid] was tested. Which pIC50 did it give?
Its pIC50 is 4.17.
